Results from publication PMC8950706, “Influence of Substitutions in the Binding Motif of Proline-Rich Antimicrobial Peptide ARV-1502 on 70S Ribosome Binding and Antimicrobial Activity” (International Journal of Molecular Sciences, 2022).
≈ marks a conversion by molar mass, not a printed value. Entries after “also recorded” stand apart in the source; their conditions may differ. Square brackets hold non-standard residues; d marks the D form. Peptide text beside a SMILES is read from it. Ac6c = NC1(C(=O)O)CCCCC1

Tests used:
[1] = system: E. coli BW25113; experiment: MIC, liquid broth micro dilution, wild type; type: cell-based, Escherichia coli; conditions: for MIC (µg/mL), Table 3: BW25113, 4 h; for Minimal Inhibitory Concentration, 25% MHB2, wt / Minimal Inhibitory Concentration, 33% TSB, wt: BW25113, 20 h
In short: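 Twofold peptide dilutions from 128 mg/L were made in 25% MHB2 or 33% TSB, with 4 h subcultured bacteria added to […]. After 20 h at 37 °C, OD595 was read; MIC is the lowest peptide concentration preventing visible growth.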

[2] = system: E. coli 70S ribosome; experiment: Cell-free GFP expression assay (in vitro translation); type: biochemical; conditions: for In Vitro Translation (%): GFP expression remaining relative to control, concentration not given (higher concentration 50 µmol/L)
In short: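 PURExpress ΔRF123 cell-free translation of sfGFP (UAA stop codon, 35 ng template) with diluted RF1, peptides at 5 and 50 µmol/L final. Incubated 2 h at 37 °C; GFP fluorescence (ex 485/em 535 nm) recorded every 10 min.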

[3] = system: E. coli BW25113 ∆sbmA ∆mdtM; type: cell-based, Escherichia coli; conditions: for Minimal Inhibitory Concentration, 25% MHB2, ∆sbmA ∆mdtM: 25% MHB2, 37 °C; for Minimal Inhibitory Concentration, 25% MHB2, ∆sbmA ∆mdtM / Minimal Inhibitory Concentration, 33% TSB, ∆sbmA ∆mdtM: 20 h, at least duplicates on two days, * once on two days, ** duplicate on one day; for Minimal Inhibitory Concentration, 33% TSB, ∆sbmA ∆mdtM: 37 °C; for Effect of the additional mdtM knockout on antibacterial activity: ∆sbmA ∆mdtM compared with ∆sbmA
Procedure: MIC values were determined using a liquid broth micro dilution assay in sterile 96-well plates (polystyrene F-bottom, Greiner Bio-One GmbH) and a total volume of 100 μL per well. Aqueous peptide solutions (10 g/L) were serially twofold diluted in 25% Mueller-Hinton broth 2 (25% MBH2) or 33% tryptic soy broth (33% TSB) starting at a peptide concentration of 128 mg/L (50 μL/well). Overnight cultures of bacteria grown in 25% MHB2 (or 33% TSB) were diluted 30-fold in 25% MHB2 (or 33% TSB). After an incubation period of 4 h (37 °C, 200 rpm), cells were diluted to 1.5 × 10^7 cfu/mL, based on a McFarland test, and 50 μL were added to each well (final concentration of 7.5 × 10^6 […]). The plates were incubated (37 °C, 20 h) and the optical density was recorded at 595 nm using a microplate reader ([…]^TM, Beckmann Coulter). The MIC was defined as the lowest peptide concentration preventing visible bacterial growth.

[4] = system: E. coli 70S ribosome; experiment: Competitive FP binding screening assay with Cf-ARV-1502 (relative FP); parameters: species or system E. coli BW25113; conditions: for Ribosome Binding (%): competitive ribosome binding against Cf-ARV-1502 (relative FP; values match 1.2 µmol/L peptide), low value = strong competition
In short: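 E. coli BW25113 70S ribosomes (final 0.5 µmol/L) preincubated 90 min at 28 °C with unlabeled peptides in four twofold dilutions, then Cf-ARV-1502 (final 20 nmol/L) added for a further 90 min at 28 °C. Buffer: HEPES-KOH pH 7.6, 6 mmol/L MgCl2. Fluorescence polarization (ex 485/em 535 nm) normalized to ribosome-free and ribosome-containing controls.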

[5] = control without unlabeled peptide = 100%, 0.5 µmol/L ribosome, 20 nmol/L Cf-ARV-1502, triplicates, repeated once on another day

**Q.** `CC(C)C[C@H](NC(=O)[C@H](Cc1ccc(O)cc1)NC(=O)[C@@H]1CCCN1C(=O)[C@H](CCCNC(=N)N)NC(=O)[C@@H]1CCCN1C(=O)[C@H](CCCCN)NC(=O)[C@H](CC(=O)O)NC(=O)[C@@H]1CCCN1C(=O)[C@H](CCCNC(=N)N)NC(=O)C1(N)CCCCC1)C(=O)N1CCC[C@H]1C(=O)N[C@@H](CCCNC(=N)N)C(=O)N1CCC[C@H]1C(=O)N[C@@H](CCCNC(=N)N)C(=O)N1CCC[C@H]1C(=O)N1CCC[C@H]1C(=O)N[C@@H](CCCNC(=N)N)C(=O)N1CCC[C@H]1C(=O)N[C@H](C(=O)N[C@@H](CCCNC(=N)N)C(N)=O)C(C)C` [ARV-1502] (H-[Ac6c]RPDKPRPYLPRPRPPRPVR-NH2) was tested. Which “MIC (µg/mL), Table 3” value [1] did it give?
**A.** Its value is 8 µg/mL (≈ 3.23 µM).

**Q.** And the “Minimal Inhibitory Concentration, 25% MHB2, wt” value [1]?
**A.** Its value is 8 µg/mL.

**Q.** What about the “Minimal Inhibitory Concentration, 33% TSB, wt” value [1] of the same compound?
**A.** Its value is 16 µg/mL.

**Q.** What about the “In Vitro Translation (%)” value [2] of the same compound?
**A.** The value was 105.8 ± 0.9%.

**Q.** And the “Reduction of GFP expression, 50 µmol/L peptide” value ([2]; cell-free expression, peptide-to-ribosome ratio of 25, GFP fluorescence, 37 °C)?
**A.** The value was “no significant effects; also recorded: not at all”.

**Q.** What about the “Minimal Inhibitory Concentration, 25% MHB2, ∆sbmA ∆mdtM” value [3] of the same compound?
**A.** The value was 64 µg/mL.

**Q.** And the “Minimal Inhibitory Concentration, 33% TSB, ∆sbmA ∆mdtM” value [3]?
**A.** Its value is 128 µg/mL.

**Q.** And the “Effect of the additional mdtM knockout on antibacterial activity” value [3]?
**A.** Its value is “further decreased”.

**Q.** And the “Ribosome Binding (%)” value [4]?
**A.** The value was 40.9 ± 3.9%.

**Q.** What about the “Relative FP at 1.2 µmol/L unlabeled peptide” value [4, 5] of the same compound?
**A.** The value was 40.9 ± 3.9%.

**Q.** What about the “Relative FP at 2.4 µmol/L unlabeled peptide” value [4, 5] of the same compound?
**A.** Its value is 32.1 ± 1.3%.

**Q.** Which results are given for `CC[C@H](C)[C@H](NC(=O)[C@@H](CCCNC(=N)N)NC(=O)[C@H](CCCNC(=N)N)NC(=O)[C@@H]1CCCN1C(=O)[C@@H]1CCCN1C(=O)[C@H](CCCNC(=N)N)NC(=O)[C@@H]1CCCN1C(=O)[C@H](CCCNC(=N)N)NC(=O)[C@@H]1CCCN1C(=O)[C@H](CC(C)C)NC(=O)[C@H](Cc1ccc(O)cc1)NC(=O)[C@@H]1CCCN1C(=O)[C@@H]1CCCN1C(=O)[C@H](CCCCN)NC(=O)[C@H](CC(=O)O)NC(=O)[C@@H](N)C(C)C)C(=O)N[C@@H](Cc1ccc(O)cc1)C(=O)N[C@@H](CC(N)=O)C(=O)N[C@H](CCCNC(=N)N)C(N)=O` [Onc112, reference compound] (H-VDKPPYLPRPRPPR[dR]IYN[dR]-NH2; N-terminus and C-terminus assumed)?
**A.** MIC (µg/mL), Table 3 [1]: 8 µg/mL (≈ 3.35 µM); Minimal Inhibitory Concentration, 25% MHB2, wt [1]: 8 µg/mL; Minimal Inhibitory Concentration, 33% TSB, wt [1]: 16 µg/mL; In Vitro Translation (%) [2]: 4.9 ± 0.3%; IC50 ([2]; in vitro translation, Supplementary Figure S2, reference 4 is also given at the place, read-out: IC50 of inhibition of GFP expression): 150 nM; Minimal Inhibitory Concentration, 25% MHB2, ∆sbmA ∆mdtM [3]: 64 µg/mL; Minimal Inhibitory Concentration, 33% TSB, ∆sbmA ∆mdtM [3]: 128 µg/mL; Effect of the additional mdtM knockout on antibacterial activity [3]: weakened the activity; Ribosome Binding (%) [4]: 32.1 ± 1.0%

**Q.** Which “MIC (µg/mL), Table 3” value [1] does the source give for `CC(C)C[C@H](NC(=O)[C@H](Cc1ccc(O)cc1)NC(=O)[C@@H]1CCCN1C(=O)[C@H](CCCNC(=N)N)NC(=O)[C@@H]1CCCN1C(=O)[C@H](CCCCN)NC(=O)[C@H](CCCCN)NC(=O)[C@@H]1CCCN1C(=O)[C@H](CCCNC(=N)N)NC(=O)C1(N)CCCCC1)C(=O)N1CCC[C@H]1C(=O)N[C@@H](CCCNC(=N)N)C(=O)N1CCC[C@H]1C(=O)N[C@@H](CCCNC(=N)N)C(=O)N1CCC[C@H]1C(=O)N1CCC[C@H]1C(=O)N[C@@H](CCCNC(=N)N)C(=O)N1CCC[C@H]1C(=O)N[C@H](C(=O)N[C@@H](CCCNC(=N)N)C(N)=O)C(C)C` [Peptide 2] (H-[Ac6c]RPKKPRPYLPRPRPPRPVR-NH2; N-terminus and C-terminus assumed) here?
**A.** The value was 4 µg/mL (≈ 1.61 µM).

**Q.** What about the “Minimal Inhibitory Concentration, 25% MHB2, wt” value [1] of the same compound?
**A.** The value was 4 µg/mL.

**Q.** And the “Minimal Inhibitory Concentration, 33% TSB, wt” value [1]?
**A.** The value was 32 to 64 µg/mL.

**Q.** And the “In Vitro Translation (%)” value [2]?
**A.** Its value is 53.2 ± 8.2%.

**Q.** What about the “Reduction of GFP fluorescence intensity, 10-fold lower concentration (5 µmol/L peptide)” value ([2]; cell-free expression, 2.5-fold peptide excess, 37 °C) of the same compound?
**A.** Its value is 22%.

**Q.** What about the “Effect of the additional mdtM knockout on antibacterial activity” value [3] of the same compound?
**A.** The value was “no effect”.

**Q.** And the “Inhibition of Cf-ARV-1502 binding to the 70S ribosome (in words)” value ([4]; Figure 3: peptide concentration 1.2 µmol/L)?
**A.** Its value is “did not reduce the competition with Cf-ARV-1502”.

**Q.** What about the “Ribosome Binding (%)” value [4] of the same compound?
**A.** Its value is 40.3 ± 2.2%.
